From patent US6727264B1 (Synaptic Pharmaceutical Corporation, priority 2001, dated 2004)
Read-outs that look alike come from different tables or passages of the source.

Target: rat MCH-1 (Rattus norvegicus, UniProt P97639)
Assay: Radioligand binding assay at cloned rat MCH1 receptor ([3H] Compound A)
Design: host or cells: Peak rapid 293 (Peakr293) cells, transient calcium phosphate transfection, membranes
Conditions: cloned rat MCH1 receptor, 0.08 nM [3H] Compound A, read-out: Ki (nM) rMCH1

Sequence of rat MCH-1 (P97639 whole entry): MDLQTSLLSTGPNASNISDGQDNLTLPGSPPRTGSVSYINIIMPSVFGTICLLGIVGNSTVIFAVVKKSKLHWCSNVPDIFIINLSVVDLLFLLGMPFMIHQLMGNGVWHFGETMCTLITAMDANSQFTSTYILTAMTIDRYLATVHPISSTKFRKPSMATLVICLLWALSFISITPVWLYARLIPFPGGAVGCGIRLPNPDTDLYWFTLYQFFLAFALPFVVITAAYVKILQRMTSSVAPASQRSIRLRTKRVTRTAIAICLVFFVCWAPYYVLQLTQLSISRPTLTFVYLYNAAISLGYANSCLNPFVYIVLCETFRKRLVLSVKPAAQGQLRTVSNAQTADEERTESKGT

SMILES	Ki (Peakr293 cell membranes) [nM]	Ki (membranes from Peakr293 cells) [nM]
CC(C)C(=O)Nc1cccc(C2CCN(CCCCCC(O)c3ccccc3F)CC2)c1 (stereo not shown) [Example 809]	56.8	
CC(C)C(=O)Nc1cccc(C2CCN(Cc3c[nH]c4cc(C(F)(F)F)ccc34)CC2)c1 [Example 499]	11.9	
CC(C)C(=O)Nc1cccc(C2CCN(Cc3ccc(C(=O)c4ccccc4)cc3)CC2)c1 [Example 807]	2.7	
CC(C)C(=O)Nc1cccc(C2CCN(CCCc3c(-c4ccc(F)cc4)n(C)c4ccccc34)CC2)c1 [Example 700]	2	
Cc1ccc(C(=O)CCCN2CCC(c3cccc(NC(=O)C4CC4)c3)CC2)cc1C [Example 546]	87.9	
CC(C)C(=O)Nc1cccc(C2CCN(CCCCC(=O)c3ccccc3F)CC2)c1 [Example 671]	88.6	
CC(C)C(=O)Nc1cccc(C2CCN(Cc3c[nH]c4cccc(Br)c34)CC2)c1 [Example 431]	968	
CC(C)C(=O)Nc1cccc(C2CCN(CCCCC(=O)c3ccccc3Br)CC2)c1 [Example 677]	52.3	
CC(C)C(=O)Nc1cccc(C2CCN(CCC(Oc3ccc(C(F)(F)F)cc3)c3ccc(F)cc3)CC2)c1 (stereo not shown) [Example 137]		25.2
CC(C)C(=O)Nc1cccc(C2CCN(Cc3cn(-c4cccnc4)c4ccccc34)CC2)c1 [Example 500]	29.4	
CC(C)C(=O)Nc1cccc(C2CCN(Cc3cccc4c3ccn4-c3ccncc3)CC2)c1 [Example 869]	431	
CC(C)C(=O)Nc1cccc(C2CCN(Cc3cc4ccccc4s3)CC2)c1 [Example 253]		362
COc1ccc(OC(CCN2CCC(c3cccc(NC(=O)C(C)C)c3)CC2)c2ccc(Cl)cc2)cc1 (stereo not shown) [Example 130]		6
CC(C)C(=O)Nc1cccc(C2CCN(C[C@H](C)COc3cccc(F)c3)CC2)c1 [Example 360]		163
CC(C)C(=O)Nc1cccc(C2CCN(CCCc3c(-c4cccc(I)c4)[nH]c4c3ccc3ccccc34)CC2)c1 [Example 740]	12.2	
CCC(=O)Nc1cccc(C2CCN(CCCCC(=O)c3ccc(F)cc3)CC2)c1 [Example 545]	52	
CC(C)C(=O)Nc1cccc(C2CCN(Cc3c[nH]c4cc(F)ccc34)CC2)c1 [Example 470]	654	
CC(C)C(=O)Nc1cccc(C2CCN(CCC(O)c3ccc(F)cc3)CC2)c1 (stereo not shown) [Example 127]		168
Cc1ccc2[nH]c(-c3ccc(I)cc3)c(CCCN3CCC(c4cccc(NC(=O)C(C)C)c4)CC3)c2c1 [Example 745]	15.8	
O=C(Nc1cccc(C2CCN(CC[C@@H](O)c3ccccc3)CC2)c1)C1CC1 [Example 278]		85.8
CC(C)C(=O)Nc1cccc(C2CCN(CCCCC(O)c3ccc(C(F)(F)F)cc3)CC2)c1 (stereo not shown) [Example 810]	191	
CC(C)C(=O)Nc1cccc(C2CCN(CCC(Oc3ccccc3)c3ccc4c(c3)CCC4)CC2)c1 (stereo not shown) [Example 156]		8.8
CC(C)C(=O)Nc1cccc(C2CCN(CC[C@H](NS(=O)(=O)c3ccc(F)cc3)c3ccccc3)CC2)c1 [Example 598]	25.3	
CCn1c(-c2ccc(Cl)cc2)c(CN2CCC(c3cccc(NC(=O)C(C)C)c3)CC2)c2ccccc21 [Example 434]	214	
CC(C)C(=O)Nc1cccc(C2CCN(CCC(Oc3ccc(Cl)cc3)c3ccc(F)cc3)CC2)c1 (stereo not shown) [Example 131]		11.9

SMILES	Ki (Peakr293 cell membranes) [nM]	Ki (membranes from Peakr293 cells) [nM]
CC(=O)c1cccc(O[C@@H](CCN2CCC(c3ccc(C)c(NC(=O)C(C)C)c3)CC2)c2ccccc2)c1 [Example 273]		196
CC(C)C(=O)Nc1cccc(C2CCN(Cc3cn(-c4ccccc4F)c4cc(Cl)ccc34)CC2)c1 [Example 474]	13.3	
CC(C)C(=O)Nc1cccc(C2CCN(CCCc3c(-c4ccc(Cl)cc4)[nH]c4ccccc34)CC2)c1 [Example 708]	3.8	
CC(C)C(=O)Nc1cccc(C2CCN(CCCCCC(Oc3cc(C(F)(F)F)ccc3F)c3cccc(F)c3)CC2)c1 (stereo not shown) [Example 915]	22.6	
CC(C)C(=O)Nc1cccc(C2CCN(CC[C@H](NC(=O)Nc3ccccc3F)c3ccccc3)CC2)c1 [Example 607]	142	
CC(C)C(=O)Nc1cccc(C2CCN(CCCc3c(-c4cccc(F)c4)[nH]c4ccc(OC(F)(F)F)cc34)CC2)c1 [Example 694]	6.4	
CC(C)C(=O)Nc1cccc(C2CCN(CCCCCC(Oc3cc(C(F)(F)F)ccc3F)c3ccccc3F)CC2)c1 (stereo not shown) [Example 913]	12.9	
CC(C)C(=O)Nc1cccc(C2CCN(CCCc3c(-c4ccc(F)cc4)[nH]c4ccc(OC(F)(F)F)cc34)CC2)c1 [Example 715]	4.2	
CC(C)C(=O)Nc1cccc(C2CCN(Cc3c[nH]c4c(-c5ccccc5F)cccc34)CC2)c1 [Example 516]	90.9	
COc1ccc2[nH]c(-c3ccccc3F)c(CCCN3CCC(c4cccc(NC(=O)C(C)C)c4)CC3)c2c1 [Example 712]	8.6	
COc1cccc(O[C@@H](CN2CCC(c3cccc(NC(=O)C(C)C)c3)CC2)c2ccccc2)c1 [Example 338]		844
Cc1ccccc1-c1cccc2c(CN3CCC(c4cccc(NC(=O)C(C)C)c4)CC3)c[nH]c12 [Example 524]	199	
Cc1nc(-c2ccccc2)ncc1CN1CCC(c2cccc(NC(=O)C(C)C)c2)CC1 [Example 231]		596
COc1ccc2[nH]c(-c3ccccc3)c(CCCCN3CCC(c4cccc(NC(=O)C(C)C)c4)CC3)c2c1 [Example 92]		8
CC(C)C(=O)Nc1cccc(C2CCN(CCC(Oc3cc(F)ccc3F)c3ccc(F)cc3)CC2)c1 (stereo not shown) [Example 142]		18.3
CC(C)C(=O)Nc1cccc(C2CCN(CCCc3c(-c4cccc(Cl)c4)n(C)c4ccccc34)CC2)c1 [Example 724]	5	
CC(C)C(=O)Nc1cccc(C2CCN(CCC(=O)c3ccc(Br)cc3)CC2)c1 [Example 117]		19
CC(C)C(=O)Nc1cccc(C2CCN(CCCCCC(Oc3cc(C(F)(F)F)ccc3F)c3ccc(Cl)cc3)CC2)c1 (stereo not shown) [Example 914]	17.3	
CC(C)C(=O)Nc1cccc(C2CCN(CCCCCCNC(=O)c3cccnc3Oc3ccccc3)CC2)c1 [Example 627]	109	
Cc1ccc(C(=O)CCCN2CCC(c3cccc(NC(=O)C(C)C)n3)CC2)cc1C [Example 264]		54.7
CC(C)C(=O)Nc1cccc(C2CCN(Cc3ccc4c(c3)Cc3ccccc3-4)CC2)c1 [Example 257]		37.2
CC(C)C(=O)Nc1cccc(C2CCN(CCCCC(=O)c3ccc(Cl)cc3)CC2)c1 [Example 675]	32.6	
CC(=O)c1cccc(OCCCCCCN2CCC(c3cccc(NC(=O)C4CC4)c3)CC2)c1 [Example 384]		69
CC(C)C(=O)Nc1cccc(C2CCN(CCC(Oc3ccc(C(F)(F)F)cc3)c3ccc(Cl)cc3)CC2)c1 (stereo not shown) [Example 186]		4.9
CC(C)C(=O)Nc1cccc(C2CCN(CCCc3c(-c4ccc(Br)cc4)[nH]c4ccccc34)CC2)c1 [Example 756]	4.2	

SMILES	Ki (Peakr293 cell membranes) [nM]	Ki (membranes from Peakr293 cells) [nM]
COc1ccc(Oc2cccc(CN3CCC(c4cccc(NC(=O)C(C)C)c4)CC3)c2)cc1 [Example 212]		43
COc1cccc(OC(CCN2CCC(c3cccc(NC(=O)C(C)C)c3)CC2)c2ccc(Br)cc2)c1 (stereo not shown) [Example 147]		8.7
CC(=O)c1cccc(OCCCCCCN2CCC(c3cccc(NC(=O)C(C)C)c3)CC2)c1 [Example 383]		290
CC(C)C(=O)Nc1cccc(C2CCN(CCCCC(=O)c3ccccc3I)CC2)c1 [Example 668]	25.8	
CC(C)C(=O)Nc1cccc(C2CCN(CCC(Oc3ccc(Oc4ccccc4)cc3)c3ccc(Br)cc3)CC2)c1 (stereo not shown) [Example 149]		149
COc1ccc(-n2ccc3cc(CN4CCC(c5cccc(NC(=O)C(C)C)c5)CC4)ccc32)cc1 [Example 833]	27.5	
Cc1c(CN2CCC(c3cccc(NC(=O)C(C)C)c3)CC2)c(=O)n(-c2ccccc2)n1C [Example 228]		841
O=C(Nc1cccc(C2CCN(Cc3cn(-c4ccccc4Cl)c4ccccc34)CC2)c1)C1CC1 [Example 457]	27.4	
Cc1ccc2[nH]c(-c3ccccc3F)c(CCCN3CCC(c4cccc(NC(=O)C(C)C)c4)CC3)c2c1 [Example 698]	3	
CC(C)C(=O)Nc1cccc(C2CCN(C[C@H](C)COc3ccc(Cl)cc3)CC2)c1 [Example 363]		31.6
CC(C)C(=O)Nc1cccc(C2CCN(CCCc3c(-c4ccccc4I)[nH]c4ccc(OC(F)(F)F)cc34)CC2)c1 [Example 786]	19.7	
CC(C)C(=O)Nc1cccc(C2CCN(CCCc3c(-c4cccc(F)c4)[nH]c4c3ccc3ccccc34)CC2)c1 [Example 699]	5.4	
Cc1ccc(-n2cc(CN3CCC(c4ccc(NC(=O)C(C)C)cc4)CC3)c3ccccc32)cc1 [Example 422]	173	
CC(C)C(=O)Nc1cccc(C2CCN(CCCOc3cccc(Cl)c3)CC2)c1 [Example 344]		44.6
CC(C)C(=O)Nc1cccc(C2CCN(CCC(Oc3cccc(F)c3)c3ccc(F)cc3)CC2)c1 (stereo not shown) [Example 140]		27.4
O=C(CCCCN1CCC(c2cccc(NC(=O)C3CC3)c2)CC1)c1cccc([N+](=O)[O-])c1 [Example 553]	27.5	
CC(C)C(=O)Nc1cccc(C2CCN(CCCc3c(-c4ccccc4F)[nH]c4ccccc34)CC2)c1 [Example 693]	0.4	
CCOC(=O)c1c(CN2CCC(c3cccc(NC(=O)C(C)C)c3)CC2)c(C)n(-c2ccccc2)c1C [Example 221, ETHYL 4-({4-[3-(ISOBUTYRYLAMINO)PHENYL]-1-PIPERIDINYL}METHYL)-2,5-DIMETHYL-1-PHENYL-1H-PYRROLE-3-CARBOXYLATE]		546
CC(C)C(=O)Nc1cccc(C2CCN(CCCCNC(=O)C(c3ccccc3)c3ccccc3)CC2)c1 [Example 653]	48.8	
Cc1cccc(OC(CCN2CCC(c3cccc(NC(=O)C(C)C)c3)CC2)c2ccc(Br)cc2)c1 (stereo not shown) [Example 144]		13.4
Cc1ccc(C2CCN(CCCC(c3ccc(F)cc3)c3ccc(F)cc3)CC2)cc1NC(=O)C(C)C [Example 271]		40.1
CCC(=O)Nc1cccc(C2CCN(CCCC(=O)c3ccc(C)cc3)CC2)c1 [Example 542]	31.3	
Cc1cccc2c(CCCN3CCC(c4cccc(NC(=O)C(C)C)c4)CC3)c(-c3ccc(I)cc3)[nH]c12 [Example 746]	8	
